Measured values as given in ChEMBL document CHEMBL2413011, “One-pot tandem Hurtley-retro-Claisen-cyclisation reactions in the synthesis of 3-substituted analogues of 5-aminoisoquinolin-1-one (5-AIQ), a water-soluble inhibitor of PARPs” (Bioorg Med Chem, 2013).
pIC50: −log10 of the molar value.

What was measured:
[1] = Solubility of the compound in water; format: physicochemical
[2] = target: Poly [ADP-ribose] polymerase 2 (Mus musculus, UniProt O88554); assay: Inhibition of mouse PARP-2
[3] = target: Poly [ADP-ribose] polymerase 1 (Bos taurus, UniProt P18493); assay: Inhibition of calf thymus PARP-1
[4] = target: T1, Poly [ADP-ribose] polymerase 1 (Homo sapiens, UniProt P09874); assay: Inhibition of PARP-1 (unknown origin) in broken nuclear preparation
[5] = target: T1, Poly [ADP-ribose] polymerase 1; assay: Inhibition of human PARP-1 assessed as synthesis of [3H]-ADP-ribose polymers from [3H]-NAD+ by scintillation proximity assay

Sequence of Poly [ADP-ribose] polymerase 2 (O88554 whole entry): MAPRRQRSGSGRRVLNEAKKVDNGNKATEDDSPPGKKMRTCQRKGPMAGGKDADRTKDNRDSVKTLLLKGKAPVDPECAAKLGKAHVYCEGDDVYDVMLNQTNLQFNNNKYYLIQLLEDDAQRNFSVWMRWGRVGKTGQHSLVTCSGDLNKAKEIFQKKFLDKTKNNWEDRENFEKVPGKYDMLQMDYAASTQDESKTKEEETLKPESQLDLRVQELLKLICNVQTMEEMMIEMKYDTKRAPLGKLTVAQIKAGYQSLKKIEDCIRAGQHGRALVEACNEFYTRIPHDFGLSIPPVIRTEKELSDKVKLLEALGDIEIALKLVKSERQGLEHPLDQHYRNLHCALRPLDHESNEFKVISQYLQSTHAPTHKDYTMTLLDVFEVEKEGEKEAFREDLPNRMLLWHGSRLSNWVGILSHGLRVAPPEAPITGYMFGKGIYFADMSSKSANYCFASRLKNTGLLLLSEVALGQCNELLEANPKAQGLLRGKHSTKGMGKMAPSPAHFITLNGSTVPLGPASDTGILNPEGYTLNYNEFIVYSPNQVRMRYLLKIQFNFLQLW
T1 sequence (P09874 whole entry): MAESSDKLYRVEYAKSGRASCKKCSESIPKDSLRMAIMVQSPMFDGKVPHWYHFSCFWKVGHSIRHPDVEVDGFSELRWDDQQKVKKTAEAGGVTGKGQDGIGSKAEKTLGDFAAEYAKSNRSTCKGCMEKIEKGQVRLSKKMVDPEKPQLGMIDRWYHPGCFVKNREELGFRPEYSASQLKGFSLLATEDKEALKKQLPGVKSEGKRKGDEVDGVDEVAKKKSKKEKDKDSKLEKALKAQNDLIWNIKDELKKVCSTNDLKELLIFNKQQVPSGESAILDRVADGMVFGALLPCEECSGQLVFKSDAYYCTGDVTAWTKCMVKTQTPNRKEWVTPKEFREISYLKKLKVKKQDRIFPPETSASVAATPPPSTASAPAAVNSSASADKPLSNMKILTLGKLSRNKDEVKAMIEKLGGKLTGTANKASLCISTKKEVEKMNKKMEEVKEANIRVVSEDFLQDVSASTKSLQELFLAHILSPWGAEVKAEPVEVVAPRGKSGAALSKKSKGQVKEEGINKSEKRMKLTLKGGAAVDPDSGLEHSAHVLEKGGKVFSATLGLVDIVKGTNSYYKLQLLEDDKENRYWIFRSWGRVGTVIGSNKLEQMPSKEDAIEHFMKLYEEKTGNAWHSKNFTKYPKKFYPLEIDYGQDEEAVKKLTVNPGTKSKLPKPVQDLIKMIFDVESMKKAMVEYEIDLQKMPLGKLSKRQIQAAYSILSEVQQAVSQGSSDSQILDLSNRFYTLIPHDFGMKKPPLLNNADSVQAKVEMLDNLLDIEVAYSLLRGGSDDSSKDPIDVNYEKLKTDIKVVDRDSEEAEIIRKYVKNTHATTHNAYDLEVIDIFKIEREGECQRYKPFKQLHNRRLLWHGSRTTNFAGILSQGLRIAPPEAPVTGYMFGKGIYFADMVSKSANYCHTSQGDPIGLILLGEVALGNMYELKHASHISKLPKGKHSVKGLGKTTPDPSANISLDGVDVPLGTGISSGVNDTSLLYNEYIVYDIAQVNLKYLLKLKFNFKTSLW
Sequence of Poly [ADP-ribose] polymerase 1 (Bos taurus, UniProt P18493) (P18493 whole entry): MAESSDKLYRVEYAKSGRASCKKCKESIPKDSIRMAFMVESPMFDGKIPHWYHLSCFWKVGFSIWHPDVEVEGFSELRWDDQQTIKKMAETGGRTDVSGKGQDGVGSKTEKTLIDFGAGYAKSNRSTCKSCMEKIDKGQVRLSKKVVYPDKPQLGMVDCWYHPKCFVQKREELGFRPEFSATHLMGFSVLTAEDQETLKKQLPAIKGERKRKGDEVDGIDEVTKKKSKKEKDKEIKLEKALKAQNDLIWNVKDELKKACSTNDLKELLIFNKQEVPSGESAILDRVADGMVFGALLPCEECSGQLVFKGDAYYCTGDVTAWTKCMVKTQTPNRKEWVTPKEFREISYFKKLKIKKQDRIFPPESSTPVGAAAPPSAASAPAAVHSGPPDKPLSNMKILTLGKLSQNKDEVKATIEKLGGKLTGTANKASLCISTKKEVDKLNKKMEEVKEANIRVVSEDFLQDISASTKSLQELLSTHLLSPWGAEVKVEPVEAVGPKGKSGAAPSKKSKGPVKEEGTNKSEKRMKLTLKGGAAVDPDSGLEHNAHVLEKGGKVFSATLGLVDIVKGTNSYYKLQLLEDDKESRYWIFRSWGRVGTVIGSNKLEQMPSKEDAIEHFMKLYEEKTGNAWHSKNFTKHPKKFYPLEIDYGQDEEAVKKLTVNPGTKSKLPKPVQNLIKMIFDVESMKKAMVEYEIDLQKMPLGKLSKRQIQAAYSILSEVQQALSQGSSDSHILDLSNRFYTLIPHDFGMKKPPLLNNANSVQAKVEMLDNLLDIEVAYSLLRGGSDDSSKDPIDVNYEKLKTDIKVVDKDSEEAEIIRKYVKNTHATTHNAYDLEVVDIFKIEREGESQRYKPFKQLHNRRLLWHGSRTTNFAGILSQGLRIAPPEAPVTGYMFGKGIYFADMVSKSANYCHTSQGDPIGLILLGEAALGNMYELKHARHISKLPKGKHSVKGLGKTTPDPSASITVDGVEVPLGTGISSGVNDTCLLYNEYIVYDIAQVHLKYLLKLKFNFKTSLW

| Compound | solubility [1] [mM] | pIC50 [2] | also measured |
| --- | --- | --- | --- |
| CCCCCc1cc2c(N)cccc2c(=O)[nH]1.Cl | > 30 | – | – |
| Cl.Nc1cccc2c(=O)[nH]c(-c3cccs3)cc12 | > 30 | – | – |
| Cl.Nc1cccc2c(=O)[nH]c(-c3ccc(Cl)cc3)cc12 | > 30 | – | – |
| CCc1cc2c(N)cccc2c(=O)[nH]1.Cl | > 30 | – | – |
| Nc1cccc2c(=O)[nH]c(-c3ccccc3)cc12 | – | 6.32 | – |
| Cc1cc2c(N)cccc2c(=O)[nH]1.Cl | > 30 | – | – |
| Nc1cccc2c(=O)[nH]c(-c3ccc(C(F)(F)F)cc3)cc12 | – | 6.77 | – |
| COc1ccc(-c2cc3c(N)cccc3c(=O)[nH]2)cc1.Cl | > 30 | – | – |
| COc1ccc(-c2cc3c(N)cccc3c(=O)[nH]2)cc1 | – | 6.14 | – |
| Cc1ccc(-c2cc3c(N)cccc3c(=O)[nH]2)cc1.Cl | > 30 | – | – |
| CC(C)Cc1cc2c(N)cccc2c(=O)[nH]1.Cl | > 30 | – | – |
| Nc1cccc2c(=O)[nH]c(-c3ccc(Cl)cc3)cc12 | – | 6.80 | – |
| Nc1cccc2c(=O)[nH]ccc12 | – | – | pIC50 [3]: 6.60; pIC50 [4]: 6.52; pIC50 [5]: 5.80 |
| Cc1cc2c(N)cccc2c(=O)[nH]1 | – | 6.59 | – |
| Cl.Nc1cccc2c(=O)[nH]c(-c3ccccc3)cc12 | > 30 | – | – |
| Cl.Nc1cccc2c(=O)[nH]c(Cc3ccccc3)cc12 | > 30 | – | – |
| Cc1ccc(-c2cc3c(N)cccc3c(=O)[nH]2)cc1 | – | 6.92 | – |
| Cl.Nc1cccc2c(=O)[nH]c(-c3ccc(C(F)(F)F)cc3)cc12 | > 30 | – | – |
| CCc1cc2c(N)cccc2c(=O)[nH]1 | – | 6.08 | – |
